In USRE48335E1, “Polymyxin derivatives as antimicrobial compounds” (priority 2014, dated 2020):
In brackets after ≈: the same amount, converted by molar mass. Positions of bridges follow the written chain, without caps; N, C: chain ends. Non-standard residues stand in square brackets, D forms with d. Residues, ends and D or L forms follow the SMILES beside them. *: point of attachment. Benzoyl(3,5-Cl2) = O=C(c1cc(Cl)cc(Cl)c1)*; X4 = O=C(c1ccc(Cl)c(Cl)c1)*; X3 = O=C(c1ccc(Cl)cc1Cl)*; Dab = NCC[C@H](N)C(=O)O; Abu = CC[C@H](N)C(=O)O; Dap = NC[C@H](N)C(=O)O

How the values were obtained:
[1] = test system: Acinetobacter baumannii; details: for MIC: A. baumannii ATCC 19606; for Minimum inhibitory concentration, Ab A ATCC 17978: Acinetobacter baumannii ATCC 17978; for Minimum inhibitory concentration, Ab A ATCC 17978 / Minimum inhibitory concentration, Ab ATCC 19606 / Minimum inhibitory concentration, Ab FADDI-AB034: broth microdilution in CAMHB; for Minimum inhibitory concentration, Ab ATCC 19606: Acinetobacter baumannii ATCC 19606; for Minimum inhibitory concentration, Ab FADDI-AB034: Acinetobacter baumannii FADDI-AB034
Outline: (§1)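 Broth microdilution MICs following CLSI standards in cation-adjusted Mueller-Hinton broth. Lipopeptides tested as TFA salts; polymyxin B sulphate served as control.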

[2] = test system: Enterobacter cloacae; details: broth microdilution in CAMHB; for Minimum inhibitory concentration, Ec FADDI-EC001: Enterobacter cloacae FADDI-EC001; for Minimum inhibitory concentration, Ec FADDI-EC003: Enterobacter cloacae FADDI-EC003; for Minimum inhibitory concentration, Ec FADDI-EC006: Enterobacter cloacae FADDI-EC006
Outline: as §1

[3] = test system: Klebsiella pneumoniae; details: K. pneumoniae FADDI-KP032
Outline: as §1

[4] = test system: Pseudomonas aeruginosa; details: for MIC: P. aeruginosa ATCC 27853; for Minimum inhibitory concentration, Pa ATCC 27853: Pseudomonas aeruginosa ATCC 27853; for Minimum inhibitory concentration, Pa ATCC 27853 / Minimum inhibitory concentration, Pa FADDI-PA022 / Minimum inhibitory concentration, Pa FADDI-PA025: broth microdilution in CAMHB; for Minimum inhibitory concentration, Pa FADDI-PA022: Pseudomonas aeruginosa FADDI-PA022; for Minimum inhibitory concentration, Pa FADDI-PA025: Pseudomonas aeruginosa FADDI-PA025
Outline: as §1

[5] = test system: A. baumannii ATCC 19606; experiment: In vivo efficacy in mouse blood infection model (neutropenic Swiss mice); details: compound, free base 4 mg/kg intravenously 2 h after inoculation, blood at 4 h
Outline: (§2)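 Neutropenic Swiss mice (cyclophosphamide 150 mg/kg day −4, 100 mg/kg day −1, i.p.) infected i.v. with early log-phase bacteria; 4 mg/kg free base i.v. given 2 h post-inoculation. Blood CFU by cardiac puncture 4 h post-dose; Δlog10 CFU/mL treated versus saline controls.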

[6] = test system: K. pneumoniae FADDI-KP032; experiment: as above; details: compound, free base 4 mg/kg intravenously 2 h after inoculation, blood at 4 h
Outline: as §2

[7] = test system: P. aeruginosa ATCC 27853; experiment: as above; details: compound, free base 4 mg/kg intravenously 2 h after inoculation, blood at 4 h
Outline: as §2

[8] = Nephrotoxicity in a mouse model (kidney histology score); type: in vivo; details: mice, subcutaneous 12 mg base/kg, 6 doses in one day every 2 h; for Max Overall Kidney Histology Score: kidney ~20 h after last dose, product of percentage score and grade score; for Max Kidney Histology Score: semiquantitative score (SQS) 0 to +5
Procedure: PMB sulphate (Batch 20120204) and colistin sulphate (Batch 20120719) were supplied by Betapharma (Shanghai Co., Ltd, China). […] At ˜20 h after the last dose, mice were euthanised by inhalation of an overdose of isoflurane. […] The formalin-fixed kidneys were then sent to the Australian Phenomics Network-Histopathology and Organ Pathology (The University of Melbourne, Parkville, VIC, Australia) for histological examination. The samples were examined by a pathologist who was blind to the treatment groups. Lesions were rated as follows: mild acute tubular damage with tubular dilation, prominent nuclei and a few pale […] tubular casts (Grade 1); severe acute tubular damage with necrosis of tubular epithelial cells and numerous tubular casts (Grade 2); acute cortical necrosis/infarction of tubules and glomeruli with or without papillary necrosis (Grade 3). […] The overall kidney histology score was calculated as the product of percentage score and grade score. […] These scores were assigned as follows: […] SQS+3=moderate damage (overall score, 30 to <45); […]

| Compound | MIC [1] [µg/mL] | Minimum inhibitory concentration, Ab A ATCC 17978 [1] [µg/mL] | Minimum inhibitory concentration, Ab ATCC 19606 [1] [µg/mL] | Minimum inhibitory concentration, Ab FADDI-AB034 [1] [µg/mL] | Minimum inhibitory concentration, Ec FADDI-EC001 [2] [µg/mL] | Minimum inhibitory concentration, Ec FADDI-EC003 [2] [µg/mL] | Minimum inhibitory concentration, Ec FADDI-EC006 [2] [µg/mL] | MIC [3] [µg/mL] | MIC [4] [µg/mL] | Minimum inhibitory concentration, Pa ATCC 27853 [4] [µg/mL] | Minimum inhibitory concentration, Pa FADDI-PA022 [4] [µg/mL] | Minimum inhibitory concentration, Pa FADDI-PA025 [4] [µg/mL] | Δ log (Treated-Control at 4 h) [5] [log10 CFU/mL] | Δ log (Treated-Control at 4 h) [6] [log10 CFU/mL] | Δ log (Treated-Control at 4 h) [7] [log10 CFU/mL] | Max Overall Kidney Histology Score [8] | Max Kidney Histology Score [8] |
| --- | --- | --- | --- | --- | --- | --- | --- | --- | --- | --- | --- | --- | --- | --- | --- | --- | --- |
| CC[C@@H]1NC(=O)[C@@H](CC(C)C)NC(=O)[C@H](CCN)NC(=O)[C@@H](NC(=O)[C@H](CN)NC(=O)[C@@H](NC(=O)[C@H](CCN)NC(=O)c2ccc(Cl)c(Cl)c2)[C@@H](C)O)CCNC(=O)[C@H]([C@@H](C)O)NC(=O)[C@H](CCN)NC(=O)[C@H](CCN)NC1=O [Compound 71] (X4-[Dab]T[Dap][Dab][Dab][dL][Abu][Dab][Dab]T; lactam 4-C) | 0.5 (≈ 0.431 µM) | 0.25 (≈ 0.215 µM) | 0.5 (≈ 0.431 µM) | 0.25 (≈ 0.215 µM) | 1 (≈ 0.862 µM) | 0.25 (≈ 0.215 µM) | 1 (≈ 0.862 µM) | 0.5 (≈ 0.431 µM) | 0.5 (≈ 0.431 µM) | 0.5 (≈ 0.431 µM) | 4 (≈ 3.45 µM) | 1 (≈ 0.862 µM) | −1.82 | −2.98 | −4.04 | 0.0 | 0 (SQS 0=no significant change (overall score, <1)) |
| CC[C@@H]1NC(=O)[C@@H](CC(C)C)NC(=O)[C@H](CCN)NC(=O)[C@@H](NC(=O)[C@H](CN)NC(=O)[C@@H](NC(=O)[C@H](CCN)NC(=O)c2ccc(Cl)cc2Cl)[C@@H](C)O)CCNC(=O)[C@H]([C@@H](C)O)NC(=O)[C@H](CCN)NC(=O)[C@H](CCN)NC1=O [Compound 82] (X3-[Dab]T[Dap][Dab][Dab][dL][Abu][Dab][Dab]T; lactam 4-C) | 0.5 (≈ 0.431 µM) | 0.5 (≈ 0.431 µM) | 0.5 (≈ 0.431 µM) | 0.25 (≈ 0.215 µM) | <0.125 | <0.125 | <0.125 | <0.125 | 0.5 (≈ 0.431 µM) | 0.5 (≈ 0.431 µM) | 0.5 (≈ 0.431 µM) | 1 (≈ 0.862 µM) | −1.44 | −3.33 | −3.44 | 0.0 | 0 (SQS 0=no significant change (overall score, <1)) |
| CC[C@@H]1NC(=O)[C@@H](CC(C)C)NC(=O)[C@H](CCN)NC(=O)[C@@H](NC(=O)[C@H](CN)NC(=O)[C@@H](NC(=O)[C@H](CCN)NC(=O)c2cc(Cl)cc(Cl)c2)[C@@H](C)O)CCNC(=O)[C@H]([C@@H](C)O)NC(=O)[C@H](CCN)NC(=O)[C@H](CCN)NC1=O [Compound 96] ({Benzoyl(3,5-Cl2)}-[Dab]T[Dap][Dab][Dab][dL][Abu][Dab][Dab]T; lactam 4-C) | 0.5 (≈ 0.431 µM) | 0.25 (≈ 0.215 µM) | 0.5 (≈ 0.431 µM) | 0.25 (≈ 0.215 µM) | 1 (≈ 0.862 µM) | 1 (≈ 0.862 µM) | 0.5 (≈ 0.431 µM) | <0.125 | 0.25 (≈ 0.215 µM) | 0.25 (≈ 0.215 µM) | 0.25 (≈ 0.215 µM) | 0.5 (≈ 0.431 µM) | −2.42 | −2.75 | −3.45 | 2.0 | +1 (SQS+1=mild damage (overall score, 1 to <15)) |
